{"source": "paper PMC11643494", "about": "“Structure–Activity Relationship Studies in a Series of 2-Aryloxy-N-(pyrimidin-5-yl)acetamide Inhibitors of SLACK Potassium Channels” (Molecules, 2024)", "target": "T1, hERG (Homo sapiens, UniProt Q12809)", "T1 construct": "expressed in transfected cells; host or cells: HEK293", "T1 sequence (Q12809 whole entry)": "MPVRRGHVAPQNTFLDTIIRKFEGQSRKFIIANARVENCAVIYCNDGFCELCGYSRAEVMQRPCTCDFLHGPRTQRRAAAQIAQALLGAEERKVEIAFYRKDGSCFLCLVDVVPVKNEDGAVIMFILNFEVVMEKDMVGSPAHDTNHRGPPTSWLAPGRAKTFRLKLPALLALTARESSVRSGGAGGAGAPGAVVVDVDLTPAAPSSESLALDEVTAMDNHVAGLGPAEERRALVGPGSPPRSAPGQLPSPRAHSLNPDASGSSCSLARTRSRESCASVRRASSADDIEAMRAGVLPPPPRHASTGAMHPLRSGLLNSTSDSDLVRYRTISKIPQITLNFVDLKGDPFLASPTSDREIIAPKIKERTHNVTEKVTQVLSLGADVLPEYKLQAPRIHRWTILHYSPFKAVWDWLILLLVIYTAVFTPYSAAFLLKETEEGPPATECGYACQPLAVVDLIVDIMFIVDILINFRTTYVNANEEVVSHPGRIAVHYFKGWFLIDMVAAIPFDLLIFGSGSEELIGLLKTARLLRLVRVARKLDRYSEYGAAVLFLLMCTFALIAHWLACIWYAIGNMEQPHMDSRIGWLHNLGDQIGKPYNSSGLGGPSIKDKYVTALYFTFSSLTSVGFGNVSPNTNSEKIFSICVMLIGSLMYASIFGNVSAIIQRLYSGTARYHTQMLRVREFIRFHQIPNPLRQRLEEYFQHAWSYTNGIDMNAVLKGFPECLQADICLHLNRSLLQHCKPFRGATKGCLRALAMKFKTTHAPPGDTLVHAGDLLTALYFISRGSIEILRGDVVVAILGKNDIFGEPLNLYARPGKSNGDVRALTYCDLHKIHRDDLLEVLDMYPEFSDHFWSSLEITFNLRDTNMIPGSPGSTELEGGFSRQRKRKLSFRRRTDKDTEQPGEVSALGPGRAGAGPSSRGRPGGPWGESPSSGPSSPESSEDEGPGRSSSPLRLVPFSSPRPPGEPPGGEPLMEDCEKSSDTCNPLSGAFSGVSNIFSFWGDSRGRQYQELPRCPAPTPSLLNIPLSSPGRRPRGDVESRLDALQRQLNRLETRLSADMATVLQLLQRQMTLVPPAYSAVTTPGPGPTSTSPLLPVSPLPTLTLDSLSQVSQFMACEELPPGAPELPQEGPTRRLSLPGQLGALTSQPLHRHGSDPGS", "experiment": "Tl+-flux assay in HEK-293 cells, hERG", "format": "cell-based", "conditions": "HEK293 cells stably expressing hERG, pH 7.3, 10 µM test compound, relative to control bepridil, read-out: Percent Inhibition ± SEM, hERG", "text": "Having executed our plan to prepare analogs across the identified regions of the chemotype (Figure 2), we identified two analogs for further profiling and evaluation. […] Desiring to add a second compound with some measure of structural differences, we also chose another submicromolar SLACK inhibitor 66 (VU0936154). Whereas 40 contains an ether linker and a halogenated phenyl group in the eastern region, […] contains an N-methyl linker and a phenyl group with a more polar cyano substituent. We first screened these analogs at 10 µM versus our in-house panel of ion channel targets using Tl^+-flux assays in HEK-293 cells expressing the human target of interest. […] Included in this set are Slo family members SLICK and two isoforms of Maxi-K, as well as several different K^+, Na^+, and Ca^2+ channels (Table 6). […] Of note was the excellent selectivity versus the broader panel of targets for both compounds, including versus the hERG channel.\nStably transfected monoclonal HEK293 cell lines expressing SLICK, Maxi-K α1/β3, Maxi-K α1/β4, CaV3.2, GIRK 1/2, KV2.1, KV7.2, NaV1.7, and TASK-1 were generated as previously described. […]\nThe Tl^+ flux assays were conducted as previously described, with modifications optimized for individual cell lines as described below. […] Cell plates were then loaded onto a Panoptic kinetic imaging plate reader (WaveFront Biosciences, Franklin, TN, USA). […]"}
{"molecule": "CC(C)(Oc1ccc(Cl)cc1)C(=O)Nc1cnc(Oc2c(F)cccc2F)nc1", "note": "[Analog 40]", "values": [{"measurement": "inhibition at 120 s, 10 µM", "value": "0.9 ± 2.9", "unit": "%"}]}
{"molecule": "CN(c1ccc(C#N)cc1)c1ncc(NC(=O)C(C)(C)Oc2ccc(Cl)cc2)cn1", "note": "[Analog 66]", "values": [{"measurement": "inhibition at 120 s, 10 µM", "value": "13 ± 3.3", "unit": "%"}]}
